Experimental data taken from publication PMC4747952, “Development of TASP0410457 (TASP457), a novel dihydroquinolinone derivative as a PET radioligand for central histamine H3 receptors” (EJNMMI Research, 2016).

Target: T1, H3Rs (Rattus norvegicus, UniProt Q9QYN8)
T1 construct: from tissue; host or cells: sagittal rat brain sections
Assay: In vitro autoradiography, rat brain sections
Type: binding
Details: 5 nM radioligand
Experimental: Twenty-micrometer-thick sagittal rat and monkey brain sections were incubated in an autoradiography buffer containing 5 nM [^11C]TASP0410457 as described in Additional file 1: Supplemental methods. The binding was also performed in the presence of 10 μM of unlabeled TASP0410457, thioperamide, or ciproxifan for the rat sections and 10 μM of TASP0410457 or ciproxifan for the monkey sections to assess the specific radioligand binding.
(25:75) at a flow rate of 1 mL/min. A representative chromatogram of [11C]TASP0390136 is shown in […]
Twenty-micrometer-thick sagittal rat brain sections were pre-incubated with autoradiography buffer (50 mM Tris containing 120 mM NaCl, 2 mM KCl, 1 mM MgCl2, and 1 mM CaCl2, pH7.4) for 30 min, then incubated in the autoradiography buffer containing 5 nM [11C]TASP0410457 at 25°C for 1 h. The sections were washed two times with ice-cold autoradiography buffer for 5 min, rinsed with ice-cold water for 10 s, and then quickly dried. The radioactivity retained on the sections was determined using a BAS imaging plate and the BAS5000 system (GE Healthcare, Piscataway, NJ). For a blocking study, brain slices were reacted with [11C]TASP0410457 in the presence of […] of TASP0410457, thioperamide, or ciproxifan.
Similarly, autoradiography using […] sagittal rhesus monkey brain sections was conducted. […]

T1 sequence (Q9QYN8 whole entry): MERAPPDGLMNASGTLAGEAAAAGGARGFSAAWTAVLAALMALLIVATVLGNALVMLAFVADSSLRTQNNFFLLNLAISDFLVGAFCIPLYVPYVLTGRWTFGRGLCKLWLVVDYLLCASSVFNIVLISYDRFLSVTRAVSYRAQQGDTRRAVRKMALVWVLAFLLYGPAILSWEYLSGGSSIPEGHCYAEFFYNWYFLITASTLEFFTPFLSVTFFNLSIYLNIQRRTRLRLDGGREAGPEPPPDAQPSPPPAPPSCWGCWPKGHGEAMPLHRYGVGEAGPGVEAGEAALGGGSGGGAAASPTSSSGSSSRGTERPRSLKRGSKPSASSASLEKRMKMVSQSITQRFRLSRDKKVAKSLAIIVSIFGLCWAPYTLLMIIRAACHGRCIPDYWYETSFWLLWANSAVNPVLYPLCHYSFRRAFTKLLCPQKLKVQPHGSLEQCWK

## [11CH3]Oc1ccc(N2C(=O)CCc3cc(OC4CCN(C5CCC5)CC4)ccc32)cn1 [[^11C]TASP0410457]
  autoradiographic binding in rat brain sections: abundant specific binding in the striatum and neocortex
